Assay [1] has as its target N-terminal active peptide segment (MI-N899) of POLQ with ATPase activity (Homo sapiens (Human), UniProt O75417). As to the kind of experiment: POLQ enzyme activity inhibition experiment (ATPase, NADH-coupled, OD 340 nm). In kind it is biochemical. The conditions noted are these: 100 nM POLQ (N), 100 μM ATP, 300 nM dT50.
A further assay deals with DLD-1 BRCA2 (−/−) cells. Kind of assay: Inhibition of tumour cell proliferation, 7 days, CTG. Type of assay: cell-based. Conditions: Homo sapiens, read-out: DLD-1 BRCA2 (−/−) IC50. As to the method: (§1) Brief introduction to the experimental principle: The compounds were co-incubated with tumour cells for 7 days, and then a CTG kit from Promega Inc was used to quantify ATP in viable cells, thus reflecting the effect of the compounds on tumour cell proliferation.
(§2) Experimental method: DLD-1 parental cells or DLD-1 BRCA2 (−/−) cells were diluted with RPMI 1640 medium containing 10% FBS, and then added to a 96-well plate (90 μL/well), with the number of cells being 600 cells/well or 1200 cells/well, respectively, and cultured overnight in a 37° C., 5% CO2 incubator. The compounds to be tested were diluted to different concentrations in dimethyl sulfoxide (DMSO), and then added to a 96-well plate. The final concentration of the compounds in the reaction system started from 25 μM, and was subjected to 4-fold gradient dilution. The concentration range of the compounds was from 25 μM to 0.0004 μM, and the final concentration of DMSO was 0.25% v/v. After 7 days of incubation, 50 μL/well CTG was added, and the mixture was incubated at room temperature for 10 minutes. Subsequently, the luminescence (Lum) signal value was read with an Envision microplate reader, and the inhibition rate and half inhibitory concentration (IC50) were calculated.
(§3) The inhibition rate was calculated, and XLfit software was used to perform fitting to obtain IC50 of the compounds.
(§4) In the experiment, a blank well and a DMSO well were set up, respectively.
(§5) Inhibition rate=100*(Lummax−Lumcompound)/(Lummax−Lummin)%, • where Lummax refers to the luminescence signal value of the well containing cells and 0.25% v/v DMSO; Lumcompound refers to the luminescence signal value of the well containing the compound and cells; and Lummin refers to the luminescence signal value of the well containing the medium and 0.25% v/v DMSO.

The test system of another assay is DLD-1 parental cells. Described as above. Type of assay: cell-based. Conditions: Homo sapiens, read-out: DLD-1 parental cell IC50. Here is the method:
as §1, §2, §3, §4, §5

The mark [2] stands for this setting: 168 h, DLD-1 BRCA2 (−/−) cells, 7 days of incubation, CTG.
Setting [3] is: 168 h, DLD-1 parental cells, 7 days of incubation, CTG.

Here are results for 21 molecules from patent US20250122221A1 (NANJING ZAIMING PHARMACEUTICAL CO., LTD., priority 2022, published 2025).

Molecules are shown by their SMILES. pIC50: −log10 of the molar value. Like-named read-outs stand apart in the source and are kept apart here.

N-terminal active peptide segment (MI-N899) of POLQ with ATPase activity, sequence (O75417 1-899 limits assumed): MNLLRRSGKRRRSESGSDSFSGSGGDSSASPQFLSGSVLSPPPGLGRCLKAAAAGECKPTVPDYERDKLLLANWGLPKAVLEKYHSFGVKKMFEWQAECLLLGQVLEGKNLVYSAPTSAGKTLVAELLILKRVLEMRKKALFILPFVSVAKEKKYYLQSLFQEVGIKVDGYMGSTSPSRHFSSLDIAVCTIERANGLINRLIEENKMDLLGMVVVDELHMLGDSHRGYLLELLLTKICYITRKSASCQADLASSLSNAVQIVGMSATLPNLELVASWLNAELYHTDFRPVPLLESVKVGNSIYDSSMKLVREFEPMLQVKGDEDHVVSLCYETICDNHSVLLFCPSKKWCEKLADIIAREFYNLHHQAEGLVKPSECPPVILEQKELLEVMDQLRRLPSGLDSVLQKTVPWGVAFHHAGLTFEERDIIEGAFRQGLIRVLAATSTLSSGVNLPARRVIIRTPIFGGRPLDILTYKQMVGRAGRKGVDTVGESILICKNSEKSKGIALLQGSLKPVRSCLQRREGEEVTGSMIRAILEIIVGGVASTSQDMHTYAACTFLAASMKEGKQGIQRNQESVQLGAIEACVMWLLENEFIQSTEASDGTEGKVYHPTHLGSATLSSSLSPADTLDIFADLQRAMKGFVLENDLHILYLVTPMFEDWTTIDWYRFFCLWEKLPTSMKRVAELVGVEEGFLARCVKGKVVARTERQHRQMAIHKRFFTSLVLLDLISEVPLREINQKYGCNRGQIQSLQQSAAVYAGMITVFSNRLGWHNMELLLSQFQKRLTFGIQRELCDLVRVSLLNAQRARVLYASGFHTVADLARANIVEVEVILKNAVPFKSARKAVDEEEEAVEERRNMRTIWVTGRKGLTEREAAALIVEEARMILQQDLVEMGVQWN

For `COc1cnc(C)cc1-c1cc(C)ncc1C(=O)Nc1nc2ncc(-c3ccc(OC(F)F)cn3)nc2s1` [Compound 25, N-(6-(5-(difluoromethoxy)pyridin-2-yl)thiazolo[4,5-b]pyrazin-2-yl)-5′-methoxy-2′,6-dimethyl-[4,4′-bipyridine]-3-carboxamide], the pIC50 in assay [1] is over 7.00; in the assay on DLD-1 BRCA2 (−/−) cells (setting [2]) it was over 6.70; in the assay with DLD-1 parental cells (setting [3]), under 5.00.

As to `COc1ccc(C#N)cc1-c1cc(C#N)ncc1C(=O)Nc1nc2ncc(-c3ccc(C#N)cc3)nc2s1` [Compound 33, 6-cyano-4-(5-cyano-2-methoxyphenyl)-N-(6-(4-cyanophenyl)thiazolo[4,5-b]pyrazin-2-yl)pyridine-3-carboxamide], the pIC50 is over 7.00 in assay [1], over 6.70 in the assay on DLD-1 BRCA2 (−/−) cells (setting [2]) and under 5.00 in the assay with DLD-1 parental cells (setting [3]).

Consider `COc1ccc(C#N)cc1-c1cc(C)ncc1C(=O)Nc1nc2ncc(-c3ccc(Cl)cc3)nc2s1` [Compound 46, N-(6-(4-chlorophenyl)thiazolo[4,5-b]pyrazin-2-yl)-4-(5-cyano-2-methoxyphenyl)-6-methylpyridine-3-carboxamide], for which the pIC50 in assay [1] was over 7.00; in the assay on DLD-1 BRCA2 (−/−) cells (setting [2]), over 6.70; with DLD-1 parental cells (setting [3]) it was under 5.00.

Regarding `C#Cc1ccccc1-c1cnccc1C(=O)Nc1nc2ncc(-c3ccc(C#N)cc3)nc2s1` [Compound 30, N-(6-(4-cyanophenyl)thiazolo[4,5-b]pyrazin-2-yl)-3-(2-ethynylphenyl)pyridine-4-carboxamide], the pIC50 in assay [1] was over 7.00; with DLD-1 BRCA2 (−/−) cells (DLD-1, 168 h) it was over 6.70; with DLD-1 parental cells (DLD-1, 168 h), under 5.00.

For the molecule `COc1cnc(C#N)cc1-c1cc(C)ncc1C(=O)Nc1nc2ncc(-c3ccc(Cl)cc3)nc2s1` [Compound 63, N-(6-(4-chlorophenyl)thiazolo[4,5-b]pyrazin-2-yl)-2′-cyano-5′-methoxy-6-methyl-[4,4′-bipyridine]-3-carboxamide], the values for the pIC50 (in assay [1]; in the assay with DLD-1 BRCA2 (−/−) cells (setting [2]); in the assay on DLD-1 parental cells (setting [3])) were over 7.00, 6.30 to 6.70 and under 5.00, respectively.

With `COc1cnc(C)cc1-c1cc(C)ncc1C(=O)Nc1nc2ncc(-c3ccc(OC(F)(F)F)cc3)nc2s1` [Compound 81, 5′-methoxy-2′,6-dimethyl-N-(6-(4-(trifluoromethoxy)phenyl)thiazolo[4,5-b]pyrazin-2-yl)-[4,4′-bipyridine]-3-carboxamide], the values for the pIC50 (in assay [1]; in the assay with DLD-1 BRCA2 (−/−) cells (setting [2]); in the assay on DLD-1 parental cells (setting [3])) were over 7.00, over 6.70 and under 5.00, respectively.

In the case of `COc1ccc(Cl)cc1-c1cc(C)ncc1C(=O)Nc1nc2ncc(-c3ccc(C4CC4)cn3)nc2s1` [Compound 77, 4-(5-chloro-2-methoxyphenyl)-N-[6-(5-cyclopropylpyridin-2-yl)thiazolo[4,5-b]pyrazin-2-yl]-6-methylpyridine-3-carboxamide], the figures for the pIC50 (in assay [1]; in the assay on DLD-1 BRCA2 (−/−) cells (setting [2]); in the assay on DLD-1 parental cells (setting [3])) were over 7.00, over 6.70 and under 5.00, respectively.

Regarding `COc1ccc(C#N)cc1-c1cc(C)ncc1C(=O)Nc1nc2ncc(-c3ccc(Cl)cn3)nc2s1` [Compound 62, N-(6-(5-chloropyridin-2-yl)thiazolo[4,5-b]pyrazin-2-yl)-4-(5-cyano-2-methoxyphenyl)-6-methylpyridine-3-carboxamide], the pIC50 in assay [1] is over 7.00; with DLD-1 BRCA2 (−/−) cells (setting [2]), over 6.70; with DLD-1 parental cells (setting [3]), under 5.00.

As to `COc1cnc(C)cc1-c1cc(C)ncc1C(=O)Nc1nc2ncc(-c3ccc(C(F)(F)F)cn3)nc2s1` [Compound 27, 5′-methoxy-2′,6-dimethyl-N-(6-(5-(trifluoromethyl)pyridin-2-yl)thiazolo[4,5-b]pyrazin-2-yl)-[4,4′-bipyridine]-3-carboxamide], the figures for the pIC50 (in assay [1]; in the assay with DLD-1 BRCA2 (−/−) cells (setting [2]); with DLD-1 parental cells (setting [3])) were over 7.00, over 6.70 and under 5.00, respectively.

Regarding `COc1cnc(Cl)cc1-c1cc(C)ncc1C(=O)Nc1nc2ncc(-c3ccc(C#N)cc3)nc2s1` [Compound 20, 2′-chloro-N-(6-(4-cyanophenyl)thiazolo[4,5-b]pyrazin-2-yl)-5′-methoxy-6-methyl-[4,4′-bipyridine]-3-carboxamide], the pIC50 in assay [1] was over 7.00; with DLD-1 BRCA2 (−/−) cells (setting [2]), over 6.70; in the assay with DLD-1 parental cells (setting [3]), under 5.00.

In the case of `COc1ccccc1-n1cncc1C(=O)Nc1nc2ncc(-c3ccc(C#N)cc3)nc2s1` [Compound 32, N-(6-(4-cyanophenyl)thiazolo[4,5-b]pyrazin-2-yl)-1-(2-methoxyphenyl)-1H-imidazole-5-carboxamide], the pIC50 in assay [1] is over 7.00; with DLD-1 BRCA2 (−/−) cells (setting [2]) it was 6.30 to 6.70; in the assay with DLD-1 parental cells (setting [3]) it was under 5.00.

`COc1ccc(-c2cnc3nc(NC(=O)c4cnc(C)cc4-c4cc(C)ncc4OC)sc3n2)nc1` [Compound 75, 5′-methoxy-N-[6-(5-methoxypyridin-2-yl)thiazolo[4,5-b]pyrazin-2-yl]-2′,6-dimethyl-[4,4′-bipyridine]-3-carboxamide]: the pIC50 in assay [1] was over 7.00; in the assay on DLD-1 BRCA2 (−/−) cells (DLD-1, 168 h), over 6.70; with DLD-1 parental cells (DLD-1, 168 h) it was under 5.00.

For the molecule `COc1ccccc1-c1cnccc1C(=O)Nc1nc2ncc(-c3ccc(C#N)cc3)nc2s1` [Compound 9, N-(6-(4-cyanophenyl)thiazolo[4,5-b]pyrazin-2-yl)-3-(2-methoxyphenyl)pyridine-4-carboxamide], the pIC50 is over 7.00 in assay [1], over 6.70 with DLD-1 BRCA2 (−/−) cells (setting [2]) and under 5.00 in the assay on DLD-1 parental cells (setting [3]).

Turning to `COc1cnc(C)cc1-c1cc(C)ncc1C(=O)Nc1nc2ncc(-c3ccc(C#N)cc3)nc2s1` [Compound 21, N-(6-(4-cyanophenyl)thiazolo[4,5-b]pyrazin-2-yl)-5′-methoxy-2′,6-dimethyl-[4,4′-bipyridine]-3-carboxamide], the pIC50 is over 7.00 in assay [1], over 6.70 in the assay with DLD-1 BRCA2 (−/−) cells (setting [2]) and under 5.00 in the assay on DLD-1 parental cells (setting [3]).

Take `COc1ccc(C#N)cc1-c1cc(C)ncc1C(=O)Nc1nc2ncc(-c3ccc(C#N)cc3)nc2s1` [Compound 58, 4-(5-cyano-2-methoxyphenyl)-N-(6-(4-cyanophenyl)thiazolo [4,5-b]pyrazin-2-yl)-6-methylpyridine-3-carboxamide]: the pIC50 in assay [1] was over 7.00; in the assay on DLD-1 BRCA2 (−/−) cells (setting [2]) it was over 6.70; with DLD-1 parental cells (setting [3]), under 5.00.

In the case of `COc1cnc(C)cc1-c1cc(C)ncc1C(=O)Nc1nc2ncc(-c3ccc(C4CC4)cn3)nc2s1` [Compound 24, N-(6-(5-cyclopropylpyridin-2-yl)thiazolo[4,5-b]pyrazin-2-yl)-5′-methoxy-2′,6-dimethyl-[4,4′-bipyridine]-3-carboxamide], the pIC50 is over 7.00 in assay [1], over 6.70 with DLD-1 BRCA2 (−/−) cells (setting [2]) and under 5.00 in the assay with DLD-1 parental cells (setting [3]).

In the case of `COc1ccc(Cl)cc1-c1cc(C)ccc1C(=O)Nc1nc2ncc(-c3ccc(C#N)cc3)nc2s1` [Compound 93, 5′-chloro-N-(6-(4-cyanophenyl)thiazolo[4,5-b]pyrazin-2-yl)-2′-methoxy-5-methyl-[1,1′-biphenyl]-2-carboxamide], the pIC50 in assay [1] is over 7.00; in the assay with DLD-1 BRCA2 (−/−) cells (setting [2]), over 6.70; in the assay with DLD-1 parental cells (setting [3]), under 5.00.

Regarding `COc1cccc(F)c1-c1cnccc1C(=O)Nc1nc2ncc(-c3ccc(C#N)cc3)nc2s1` [Compound 34, N-(6-(4-cyanophenyl)thiazolo[4,5-b]pyrazin-2-yl)-3-(2-fluoro-6-methoxyphenyl)pyridine-4-carboxamide], the pIC50 was over 7.00 in assay [1], over 6.70 in the assay with DLD-1 BRCA2 (−/−) cells (setting [2]) and under 5.00 in the assay with DLD-1 parental cells (setting [3]).

As for `COc1cnc(C(F)(F)F)cc1-c1cc(C)ncc1C(=O)Nc1nc2ncc(-c3ccc(C#N)cc3)nc2s1` [Compound 73, N-(6-(4-cyanophenyl)thiazolo[4,5-b]pyrazin-2-yl)-5′-methoxy-6-methyl-2′-(trifluoromethyl)-[4,4′-bipyridine]-3-carboxamide], the pIC50 is over 7.00 in assay [1], over 6.70 in the assay on DLD-1 BRCA2 (−/−) cells (setting [2]) and under 5.00 in the assay on DLD-1 parental cells (setting [3]).

Regarding `COc1cnc(C)cc1-c1cc(C)ncc1C(=O)Nc1nc2ncc(-c3ccc(C4CC4)cc3)nc2s1` [Compound 82, N-(6-(4-cyclopropylphenyl)thiazolo[4,5-b]pyrazin-2-yl)-5′-methoxy-2′,6-dimethyl-[4,4′-bipyridine]-3-carboxamide], the pIC50 in assay [1] was over 7.00; in the assay with DLD-1 BRCA2 (−/−) cells (setting [2]), over 6.70; in the assay with DLD-1 parental cells (setting [3]), under 5.00.

With `COc1ccc(C2CC2)cc1-c1cc(C)ncc1C(=O)Nc1nc2ncc(-c3ccc(OC(F)F)cc3)nc2s1` [Compound 85, 4-(5-cyclopropyl-2-methoxyphenyl)-N-(6-(4-(difluoromethoxy)phenyl)thiazolo[4,5-b]pyrazin-2-yl)-6-methylpyridine-3-carboxamide], the pIC50 in assay [1] is over 7.00; in the assay with DLD-1 BRCA2 (−/−) cells (setting [2]) it was over 6.70; in the assay with DLD-1 parental cells (setting [3]), under 5.00.
